Data on two molecules can be found in patent publication US6642216B2, “Isoprenoid pathway inhibitors for stimulating bone growth” (ZymoGenetics Corporation, priority 1996, dated 2003).

One test has as its system ovariectomized rats. Put plainly: Chronic OVX (treatment model) oral dosing. Format: in vivo, rat. To be noted: once per day for 10 weeks, from 6 weeks post-ovariectomy, not significant. As for the experimental part:
Lead compounds may also be tested in chronic OVX animals (treatment model). An exemplary protocol for treatment of established bone loss in ovariectomized animals that can be used to assess efficacy of anabolic agents may be performed as follows. Briefly, 80 to 100 six month old female, Sprague-Dawley rats are subjected to sham surgery (sham OVX) or ovariectomy (OVX) at time 0, and 10 rats are sacrificed to serve as baseline controls. Body weights are recorded weekly during the experiment. After approximately 6 weeks (42 days) or more of bone depletion, 10 sham OVX and 10 OVX rats are randomly selected for sacrifice as depletion period controls. Of the remaining animals, 10 sham OVX and 10 OVX rats are used as placebo-treated controls. The remaining OVX animals are treated with 3 to 5 doses of test drug for a period of 5 weeks (35 days). As a positive control, a group of OVX rats can be treated with an agent such as PTH, a known anabolic agent in this model (Kimmel, et al., Endocrinology (1993) 132:1577-84). […]
(§1) Lovastatin and simvastatin were analyzed in vivo using an acute OVX (prevention model) and/or chronic (treatment model) OVX model system, as described above under “Additional In Vivo Assays”.
Simvastatin was also examined in a chronic OVX study. […] At the 50 mg/kg/day dose, an 86% (not significant) increase in the bone formation rate in the proximal tibia was measured.

In the next test the test system is rabbits. To be noted: Wang et al. 1995; cited from earlier work.
A further test relates to chickens. To be noted: Cui et al. 1996; cited from earlier work.
Test [1] has as its system ovariectomized Sprague-Dawley rats. Put plainly: Acute OVX (prevention model) oral dosing. Format: in vivo, rat. As for the experimental part: Lead compounds can also be tested in acute ovariectomized animals (prevention model) using an in vivo dosing assay. Such assays may also include an estrogen-treated group as a control. An exemplary subcutaneous dosing assay is performed as follows:
In a typical study, 80 three-month-old female Sprague-Dawley rats are weight-matched and divided into eight groups, with ten animals in each group. This includes a baseline control group of animals sacrificed at the initiation of the study; three control groups (sham ovariectomized (sham OVX)+vehicle only; ovariectomized (OVX)+vehicle only; PBS-treated OVX); and a control OVX group that is administered a compound known to promote bone growth. Three dosage levels of the compound to be tested are administered to the remaining three groups of OVX animals.
Since ovariectomy (OVX) induces hyperphagia, all OVX animals are pair-fed with sham OVX animals throughout the 35 day study. Briefly, test compound, positive control compound, PBS, or vehicle alone is administered orally or subcutaneously once per day for 35 days. Alternatively, test compound can be formulated in implantable pellets that are implanted for 35 days, or may be administered orally, such as by gastric gavage. All animals, including sham OVX/vehicle and OVX/vehicle groups, are injected intraperitoneally with calcein nine days and two days before sacrifice (two injections of calcein administered each designated day, to ensure proper labeling of newly formed bone). Weekly body weights are determined. At the end of the 35-day cycle, the animals' blood and tissues are processed as described above.
as §1
Lovastatin was examined in an acute OVX study. Briefly, 59-0326 was orally administered (35, 7, or 1.4 mg/kg/day; once per day for 35 days) immediately following ovariectomy. At the end of the study, the animals' blood and tissues samples were processed, and the following data were obtained.
Similarly, lovastatin was orally administered (0.1, 1, 5, 10, 20 or 40 mg/kg/day; once per day for 35 days) immediately following ovariectomy. Two individuals histomorphometrically analyzed samples removed from animals that received the 10 mg/kg/day dose. These analyses indicated an increase in trabecular bone volume of 38% (not significant) or 90% (p<0.02) in the proximal tibia. The bone formation rate in the proximal tibia was determined to have increased 74% (p=0.004) in animals that received a 10 mg/kg/day dose or 37% (p<0.008) in animals that received a 1 mg/kg/day dose. In samples from animals that received the 1 mg/kg/day dose, mineral apposition rate in the proximal tibia was increased 22%.

Test [2] relates to serum response element (SRE)-luciferase reporter gene / CRE-luciferase reporter gene. Put plainly: negative control OBSRE (SRE-luciferase) and/or glucagon (CRE-luciferase) assays. Format: cell-based, murine. The text has this: In the negative control OBSRE assay, a murine osteoblast cell line, such as CCC-4 expressing a serum response element (SRE)-luciferase reporter gene is used (see WO96/07733). In the negative control glucagon assay, a glucagon receptor-positive BHK cell expressing a CRE-luciferase reporter gene is used (see U.S. Pat. No. 5,698,672).

Where [3] appears, read: 7 mg/kg/day oral, once per day for 35 days.

Where “and” joins values, the source holds several entries; their conditions need not be identical. Identical values can stand only once.

As to `CCC(C)(C)C(=O)O[C@H]1C[C@@H](C)C=C2C=C[C@H](C)[C@H](CC[C@@H]3C[C@@H](O)CC(=O)O3)[C@H]21` [Simvastatin, simvastatin], the “increase in the bone formation rate in the proximal tibia” value is reported as 114% in the test on ovariectomized rats (10 mg/kg/day oral) and 86% in the test with ovariectomized rats (50 mg/kg/day oral).

Take `CC[C@H](C)C(=O)O[C@H]1C[C@@H](C)C=C2C=C[C@H](C)[C@H](CC[C@@H]3C[C@@H](O)CC(=O)O3)[C@H]21` [Lovastatin, lovastatin]: in the test with rabbits, the “effect on bone formation in the absence of steroid treatment” value was “no effect on bone formation” and the “inhibition of the bone resorption resulting from steroid administration” value is given as “able to inhibit the bone resorption”. In the test with chickens, the “bone loss in the femoral head as a result of dexamethasone treatment” value is “improved”. Moreover, the “increase in trabecular bone volume in the proximal tibia” value in test [1] (7 mg/kg/day oral, 35 days, histomorphometric analysis by two individuals (p<0.001; p=0.0503)) is 110% and 25%. The “increase in trabecular bone volume in the distal femur” value in test [1] (7 mg/kg/day oral, 35 days, not significant) turned out to be 23%. Moreover, the “increase in bone formation rate in the distal femur” value in test [1] (7 mg/kg/day oral, 35 days, p=0.052) was 40%. Moreover, in test [1] (setting [3]), the “increase in cortical thickness (pQCT)” value turned out to be 14% and the “increase in trabecular density (pQCT)” value turned out to be 20%. The “increase in mineral apposition rate in the proximal tibia” value in test [1] (second study, 1 mg/kg/day oral, 35 days) is 22%. Also, the “increase in bone formation rate in the proximal tibia” value in test [1] (second study, 1 mg/kg/day oral, 35 days, p<0.008) is on record as 37%. The “increase in bone formation rate in the proximal tibia” value in test [1] (second study, 10 mg/kg/day oral, 35 days, p=0.004) is 74%. For the same molecule, in test [1] (second study, 10 mg/kg/day oral, 35 days, two individuals (not significant; p<0.02), 10 mg/kg/day), the “increase in trabecular bone volume in the proximal tibia” value was 38% and 90%. The “dose-dependent stimulatory effect in control assays” value in test [2] was “not in control assays”.
